The values that follow come from ChEMBL document CHEMBL1137813, “An extract of Tagetes lucida and its phenolic constituents as antioxidants” (J Nat Prod, 2002).

The test system of the experiment is Radical scavenging activity. Put plainly: Antioxidant activity assessed as DPPH radical scavenging activity after 20 mins by UV-visible spectrophotometry. The experiment is classed as functional. A general note: Loss of DPPH colour is used to gauge radical scavenging.
As to `O=c1c(O)c(-c2ccc(O)cc2)oc2cc(O[C@@H]3O[C@H](CO)[C@@H](O)[C@H](O)[C@H]3O)c(O)c(O)c12`, the EC50 was found to be 6.9 µg.

For `O=c1c(O)c(-c2ccc(O)c(O)c2)oc2cc(O[C@@H]3O[C@H](CO)[C@@H](O)[C@H](O)[C@H]3O)c(O)c(O)c12`, the EC50 was determined as 4.6 µg.

Regarding `Cc1c(C)c2c(c(C)c1O)CC[C@@](C)(CCC[C@H](C)CCC[C@H](C)CCCC(C)C)O2` [ALPHA-TOCOPHEROL], the EC50 is 10.1 µg.

On to `O=C(O)/C=C/c1ccc(O)c(O)c1` [CAFFEIC ACID], for which the EC50 came to 3 µg.

In the case of `O=C(O)c1cc(O)c(O)c(O)c1` [GALLIC ACID], the EC50 was determined as 1.2 µg.

Turning to `O=c1c(O)c(-c2ccc(O)cc2)oc2cc(O)cc(O)c12` [KAEMPFEROL], the EC50 amounted to 4.4 µg.

Turning to `O=c1c(O)c(-c2ccc(O)c(O)c2)oc2cc(O)cc(O)c12` [QUERCETIN], the EC50 was determined as 2.3 µg.

With `C[C@@H]1O[C@@H](OC[C@H]2O[C@@H](Oc3c(-c4ccc(O)c(O)c4)oc4cc(O)cc(O)c4c3=O)[C@H](O)[C@@H](O)[C@@H]2O)[C@H](O)[C@H](O)[C@H]1O` [RUTIN], the EC50 was determined as 4.8 µg.
